Results as given in patent US4994258A, “Gamma emitting, CCK-A antagonists for pancreatic imaging” (Merck & Co., Inc., priority 1990, dated 1991).

Legend:
[1] = In vivo distribution of tritiated radioligand in pancreas; conditions: in vivo, iv
Method: (§1) Animals were euthanized at various times (15 min to 2 hr), and organs of interest removed for assay. Biopsy samples were counted in an autogamma counter (50% counting efficiency) for ^123 I labeled radioligand. For the tritiated radioligand, in rats and rabbits, 10 to 50 mg samples of pancreas and, in rats, several regions of CNS (cortex, interpeduncular nucleus, and substantial nigra) were solubilized in protosol® (New England Nuclear). Liquid scintillation cocktail was added and the samples were dark adapted for 16 hours, then counted in a liquid scintillation counter with automatic quench correction. Results were the average of at least five animals and were expressed as % dose/g (wet weight).

CCK-A receptors [2] = assay: as above; conditions: pancreas, tritiated radioligand
Method: as §1

CCK-A receptors [3] = assay: In vivo distribution after coinjection of unlabeled carboxamide (receptor-mediated binding); parameters: species or system rats
Method: (§2) Animals were euthanized at various times (15 min to 2 hr), and organs of interest removed for assay. […] […] Liquid scintillation cocktail was added and the samples were dark adapted for 16 hours, then counted in a liquid scintillation counter with automatic quench correction. Results were the average of at least five animals and were expressed as % dose/g (wet weight).

CCK-A receptors [4] = conditions: mice, ^3 H and ^11 C labeled, high specific activity, 4 hours post intravenous injection; cited from earlier work
[5] = molecular target: T1, CCK-A receptor from rat pancreas (Rattus norvegicus, UniProt P30551); assay: In vitro binding assay, saturation studies with radioligand, rat pancreas
T1 construct: Pancreatae were removed from either rats or rabbits immediately after euthanasia; from tissue; host or cells: rat pancreas homogenate
T1 sequence (P30551 1-444): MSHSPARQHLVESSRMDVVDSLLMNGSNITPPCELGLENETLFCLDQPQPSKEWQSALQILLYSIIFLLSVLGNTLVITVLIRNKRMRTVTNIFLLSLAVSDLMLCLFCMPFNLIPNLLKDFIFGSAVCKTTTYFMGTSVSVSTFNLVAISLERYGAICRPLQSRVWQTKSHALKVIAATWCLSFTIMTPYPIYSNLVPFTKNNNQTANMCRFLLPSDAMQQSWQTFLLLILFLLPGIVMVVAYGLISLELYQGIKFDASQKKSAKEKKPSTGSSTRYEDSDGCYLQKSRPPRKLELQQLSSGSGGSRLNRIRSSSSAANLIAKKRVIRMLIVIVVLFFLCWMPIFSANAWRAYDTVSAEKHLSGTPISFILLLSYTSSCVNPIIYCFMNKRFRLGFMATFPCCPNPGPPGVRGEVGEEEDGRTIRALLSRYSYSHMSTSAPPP
Method: Pancreatae were removed from either rats or rabbits immediately after euthanasia and placed in ice-cold buffer (50 mM Tris·HCl (pH 7.4), 5 mM MgCl2, 5 mM DTT, 2 mg/ml BSA and 0.14 mg/ml bacitracin). The tissue (0.5 g pancreas) was homogenized in 200 ml of the ice-cold Tris buffer. Aliquots (0.1 ml) were added to various concentrations of radioligand (5 ml) in Tris buffer, incubated for 60 min at ambient temperatures, and filtered over GC-filters. After washing with ice cold Tris buffer (2×5 ml), the filters were air dried and counted in 10 ml of liquid scintillation cocktail (PCS, Amersham) in a Beckman LSC-5000. Data were converted to Molar concentrations and analyzed via SCAFIT, and data are presented by the method of Scatchard. The specific activity of the radioiodinated product was determined as that which provided the same concentration of receptor as obtained with the tritiated ligand.

[6] = In vivo distribution necropsy after i.v. injection; parameters: species or system rats
Method: as §1

[7] = In vivo distribution after coinjection of unlabeled carboxamide (receptor-mediated binding); parameters: species or system rats; conditions: rat, iv
Method: as §2

CCK-A receptors [8] = system: CCK-A receptors; parameters: species or system rats; conditions: rat, in vivo, iv
Method: Rats under ketamine/acepromazine anesthesia were positioned for either anterior or posterior dynamic (128×128×16) images. A large-field-of-view gamma camera with a low energy, all purpose collimator, peaked for ^123 I, was utilized. Thirty one-minute images were acquired immediately post intravenous administration of 0.2 mCi of [^123 I]3(S)-1,3-dihydro-3-(4-iodobenzoylamino)-1-methyl -5-phenyl-2H-1,4-benzodiazepin-2-one. To enable visualization of the liver alone, an unblocked rat was injected with 0.125 mCi of ^99m Tc-albumin colloid. A static one-minute image (128×128×16) was obtained then, without moving the animal, the dose of [^123 I]3(S)-1,3-dihydro-3-(4-iodobenzoylamino) -1-methyl-5-phenyl-2H-1,4-benzodiazepin-2-one was injected and imaging proceeded as described. Rabbits and African green monkeys under ketamine/ xylazine anesthesia were positioned for an anterior view and imaged as the rats were after an intravenous injection of 0.5 mCi of [^123 I] (S)-1,3-dihydro-3-(4-iodobenzoylamino) -1-methyl-5-phenyl-2H-1,4-benzodiazepin-2-one for rabbits, and 1.3 mCi for monkeys.
All blocked studies utilized a coinjection of 1 mg/kg of (R)-N-(2,3-dihydro-1-methyl-2-oxo-5-phenyl-1H-1, 4-benzodiazepin-3-yl)-1H-indole-2-carboxamide. […] Reduced data were expressed as count rates in regions of interest (ROI) as a function of time.

[9] = mice; cited from earlier work
[10] = cited from earlier work

CN1C(=O)C(NC(=O)c2cc3ccccc3[nH]2)N=C(c2ccccc2)c2ccccc21 (stereo in doubt) [[^3 H](R)-N-(2,3-dihydro-1-methyl-2-oxo-5-phenyl-1H-1,4-benzodiazepin-3-yl)-1H-indole-2-carboxamide]
tissue uptake ([1]; 1 mg/kg): 0.25 %ID/g | tissue uptake ([1]; 10 uCi): 2.1 %ID/g | receptor-mediated part of localization in the pancreas (CCK-A receptors [2]): 90%

CN1C(=O)[C@H](NC(=O)c2cc3ccccc3[nH]2)N=C(c2ccccc2)c2ccccc21 [(R)-N-(2,3-dihydro-1-methyl-2-oxo-5-phenyl-1H-1,4-benzodiazepin-3-yl) -1H-indole-2-carboxamide, reference compound]
reduction of localization (of the [^123 I] radioligand in rat pancreas) by coinjection (CCK-A receptors [3]; coinjection 0.4 mg/kg, rat pancreas (Table 3)): 60-70%

CN1C(=O)[C@@H](NC(=O)c2cc3ccccc3[nH]2)N=C(c2ccccc2)c2ccccc21 [N-(2,3 Dihydro-1-methyl-2-oxo-5-phenyl-1H-1,4-benzodiazepine-3-yl) -1H-indole-2-carboxamide]
localization in the pancreas (CCK-A receptors [4]): 76 % dose/gram

CN1C(=O)[C@@H](NC(=O)c2ccc([123I])cc2)N=C(c2ccccc2)c2ccccc21 [[^123 I]3(S)-1,3-Dihydro-3-(4-iodobenzoylamino)-1-methyl-5-phenyl-2 H-1,4-benzodiazepin-2-one]
affinity for the CCK-A receptor relative to [^3 H](R)-N-(2,3 dihydro-1-methyl-2-oxo-5-phenyl-1H-1,4-benzodiazepin-3-yl)-1H-indole-2-carboxamide (fold lower) [5]: 3 -fold lower | tissue uptake at 0.5 h ([6]; rat, blood, iv, 10 uCi, blood, 30 min post-i.v. injection of 10 μCi, 95% confidence intervals (Table 4), read-out: % DOSE/GRAM, Blood): 0.307 ± 0.051 %ID/g | tissue uptake at 0.5 h ([6]; rat, descending colon, iv, 10 uCi, descending colon, 30 min post-i.v. injection of 10 μCi, 95% confidence intervals (Table 4), read-out: % DOSE/GRAM, Descending Colon): 0.418 ± 0.073 %ID/g | tissue uptake at 0.5 h ([6]; rat, liver, iv, 10 uCi, liver, 30 min post-i.v. injection of 10 μCi, 95% confidence intervals (Table 4), read-out: % DOSE/GRAM, Liver): 1.96 ± 0.56 %ID/g | tissue uptake at 0.5 h ([6]; rat, muscle, iv, 10 uCi, muscle, 30 min post-i.v. injection of 10 μCi, 95% confidence intervals (Table 4), read-out: % DOSE/GRAM, Muscle): 0.319 ± 0.086 %ID/g | tissue uptake at 0.25 h ([6]; rat, pancreas, iv, 10 uCi, pancreas, 15 min, i.v. injection, error range 95% confidence intervals (Table 2), read-out: % DOSE/GRAM in rat pancreas): 2.07 ± 0.46 %ID/g | tissue uptake at 0.5 h ([6]; rat, pancreas, iv, 10 uCi, pancreas, 30 min, i.v. injection, error range 95% confidence intervals (Table 2), read-out: % DOSE/GRAM in rat pancreas): 1.9 ± 0.71 %ID/g | tissue uptake at 0.5 h ([6]; rat, pancreas, iv, 10 uCi, pancreas, 30 min post-i.v. injection of 10 μCi, 95% confidence intervals (Table 4), read-out: % DOSE/GRAM, Pancreas): 2.54 ± 0.93 %ID/g | tissue uptake at 1 h ([6]; rat, pancreas, iv, 10 uCi, pancreas, 60 min, i.v. injection, error range 95% confidence intervals (Table 2), read-out: % DOSE/GRAM in rat pancreas): 1.14 ± 0.13 %ID/g | tissue uptake at 0.5 h ([6]; rat, pyloric sphincter, iv, 10 uCi, P. Sphincter (pyloric), 30 min post-i.v. injection of 10 μCi, 95% confidence intervals (Table 4), read-out: % DOSE/GRAM, P. Sphincter): 1.25 ± 0.33 %ID/g | tissue uptake at 0.5 h ([6]; rat, sigmoidal colon, iv, 10 uCi, sigmoidal colon, 30 min post-i.v. injection of 10 μCi, 95% confidence intervals (Table 4), read-out: % DOSE/GRAM, Sigmoidal Colon): 0.5 ± 0.13 %ID/g | tissue uptake at 0.5 h ([6]; rat, transverse colon, iv, 10 uCi, transverse colon, 30 min post-i.v. injection of 10 μCi, 95% confidence intervals (Table 4), read-out: % DOSE/GRAM, Transverse Colon): 0.5 ± 0.18 %ID/g | ratio of activity in the pancreas to that in the blood and liver ([6]; rats): suggests sufficient localization to provide in vivo images of the pancreas | tissue uptake at 0.5 h ([7]; blood, 0.4 mg/kg, blood, 30 min post-i.v. coinjection of 10 μCi with 0.4 mg/kg (R)-indole-2-carboxamide, 95% confidence intervals (Table 5), read-out: % DOSE/GRAM, Blood, coinjection): 0.236 ± 0.03 %ID/g | tissue uptake at 0.5 h ([7]; P. Sphincter (pyloric), 30 min post-i.v. coinjection of 10 μCi with 0.4 mg/kg (R)-indole-2-carboxamide, 95% confidence intervals (Table 5), read-out: % DOSE/GRAM, P. Sphincter, coinjection): 0.705 ± 0.19 %ID/g | tissue uptake at 0.5 h ([7]; descending colon, 30 min post-i.v. coinjection of 10 μCi with 0.4 mg/kg (R)-indole-2-carboxamide, 95% confidence intervals (Table 5), read-out: % DOSE/GRAM, Descending Colon, coinjection): 0.434 ± 0.12 %ID/g | tissue uptake at 0.5 h ([7]; sigmoidal colon, 30 min post-i.v. coinjection of 10 μCi with 0.4 mg/kg (R)-indole-2-carboxamide, 95% confidence intervals (Table 5), read-out: % DOSE/GRAM, Sigmoidal Colon, coinjection): 0.6 ± 0.47 %ID/g | tissue uptake at 0.5 h ([7]; transverse colon, 30 min post-i.v. coinjection of 10 μCi with 0.4 mg/kg (R)-indole-2-carboxamide, 95% confidence intervals (Table 5), read-out: % DOSE/GRAM, Transverse Colon, coinjection): 0.384 ± 0.06 %ID/g | tissue uptake at 0.5 h ([7]; liver, 0.4 mg/kg, liver, 30 min post-i.v. coinjection of 10 μCi with 0.4 mg/kg (R)-indole-2-carboxamide, 95% confidence intervals (Table 5), read-out: % DOSE/GRAM, Liver, coinjection): 1.69 ± 0.39 %ID/g | tissue uptake at 0.5 h ([7]; muscle, 0.4 mg/kg, muscle, 30 min post-i.v. coinjection of 10 μCi with 0.4 mg/kg (R)-indole-2-carboxamide, 95% confidence intervals (Table 5), read-out: % DOSE/GRAM, Muscle, coinjection): 0.271 ± 0.04 %ID/g | tissue uptake at 0.25 h ([7]; pancreas, 0.4 mg/kg, pancreas, 15 min, i.v. coinjection with 0.4 mg/kg (R)-indole-2-carboxamide, 95% confidence intervals (Table 3), read-out: % DOSE/GRAM in rat pancreas, coinjection): 0.574 ± 0.065 %ID/g | tissue uptake at 0.5 h ([7]; pancreas, 0.4 mg/kg, pancreas, 30 min, i.v. coinjection with 0.4 mg/kg (R)-indole-2-carboxamide, 95% confidence intervals (Table 3), read-out: % DOSE/GRAM in rat pancreas, coinjection): 0.727 ± 0.18 %ID/g | tissue uptake at 0.5 h ([7]; pancreas, 0.4 mg/kg, pancreas, 30 min post-i.v. coinjection of 10 μCi with 0.4 mg/kg (R)-indole-2-carboxamide, 95% confidence intervals (Table 5), read-out: % DOSE/GRAM, Pancreas, coinjection): 0.9 ± 0.22 %ID/g | tissue uptake at 1 h ([7]; pancreas, 0.4 mg/kg, pancreas, 60 min, i.v. coinjection with 0.4 mg/kg (R)-indole-2-carboxamide, 95% confidence intervals (Table 3), read-out: % DOSE/GRAM in rat pancreas, coinjection): 0.472 ± 0.085 %ID/g | specific localization in the region of the pyloric sphincter (CCK-A receptors [3]; rats): specific localization is obtained in the region of the pyloric sphincter | blockade of localization in the duodenum and colon (CCK-A receptors [3]; rats, duodenum and colon): significant blockade of localization was not demonstrated | localization in the pancreas (imaging and biopsied samples) (CCK-A receptors [8]): did localize in the pancreas by a receptor-mediated mechanism

Cc1cc([131I])cc(CN(C)CCCN(C)C)c1O [[^131 I]HIPDM, [^131 I]N, N, N'-trimethyl-N'-(2-hydroxy-3-methyl-5-iodobenzyl)-1,3-propanediamine]
localization in the pancreas [9]: localizes in the pancreas

C[75Se]CC[C@H](N)C(=O)O [^75 Se-selenomethionine]
biological clearance ([10]; in vivo): slow biological clearance | tracer localizing in the pancreas ([10]; in vivo): 5-7% | uptake in adjacent organs ([10]; primarily the liver): high uptake in adjacent organs, primarily the liver
